Source: patent US12514908B2 (MAPI PHARMA LTD., priority 2021, dated 2026)
Several values for one entry are separate records, joined by “and”; a condition that tells them apart may be missing. Identical values can stand only once.

Assays:
db/db mice = assay: Example 4 death of an animal in db/db mice (Table 10B); type: in vivo; conditions: 0.4 mg/kg, SC, Daily, animal No. 3, after Day 7 (3 h), before Day 14
in vivo = conditions: male, db/db, mouse, plasma, sc
[1] = Example 4 semaglutide plasma concentrations in db/db mice; conditions: for Plasma concentrations, individual animals: SC, Daily, listed as Semaglutide API
[2] = Example 5 plasma concentrations and pharmacokinetic parameters in male Gottingen minipigs; type: in vivo
Procedure: […] At each time point, ˜2.0 ml of blood was withdrawn and transferred into a prelabeled K2EDTA coated vacutainers and mixed gently by inverting the tube to facilitate mixing of anticoagulant with the blood. Blood samples were kept on gel packs until centrifugation. The collected blood samples were centrifuged at 4,000 rpm for 10 min at 4° C. Plasma was separated after centrifugation. All plasma samples were transferred into pre-labeled (Animal ID No., Time point, Study No., and Group) tubes and stored at −70±10° C. until analysis. Blood glucose levels were determined for all blood collection time points.
Bioanalysis was performed using fit-for-purpose liquid chromatography mass spectrometry (LC-MS/MS) method for the quantification of semaglutide in plasma samples. Linearity range was 1 to 204 ng/ml. Semaglutide were extracted from mini pigs plasma samples using solid phase extraction technique and quantified using LC-MS/MS with Electro Spray Ionization (ESI) and multiple reaction monitoring (MRM) in positive ionization mode.

[3] = Example 6 semaglutide plasma levels in db/db mice; type: in vivo; conditions: 0.02 mg/kg/day SC daily
Procedure: Naïve control, n=5 • 2. Vehicle (db/db mice) SC administered daily (dose-(vehicle) 1 ml/kg/day, for 42 days), n=10 • 3.
Body weight and food consumption were monitored daily. Ad-lib fed blood glucose levels were measured every third day. Fasted blood glucose levels were measured on Day-14, Day-28 and Day-42. Glycated hemoglobin (hbA1c) levels were measured on Day-0, Day-28, and Day-42.

## CC[C@H](C)[C@H](NC(=O)[C@H](Cc1ccccc1)NC(=O)[C@H](CCC(=O)O)NC(=O)[C@H](CCCCNC(=O)COCCOCCNC(=O)COCCOCCNC(=O)CC[C@H](NC(=O)CCCCCCCCCCCCCCCCC(=O)O)C(=O)O)NC(=O)[C@H](C)NC(=O)[C@H](C)NC(=O)[C@H](CCC(N)=O)NC(=O)CNC(=O)[C@H](CCC(=O)O)NC(=O)[C@H](CC(C)C)NC(=O)[C@H](Cc1ccc(O)cc1)NC(=O)[C@H](CO)NC(=O)[C@H](CO)NC(=O)[C@@H](NC(=O)[C@H](CC(=O)O)NC(=O)[C@H](CO)NC(=O)[C@@H](NC(=O)[C@H](Cc1ccccc1)NC(=O)[C@@H](NC(=O)CNC(=O)[C@H](CCC(=O)O)NC(=O)C(C)(C)NC(=O)[C@@H](N)Cc1cnc[nH]1)[C@@H](C)O)[C@@H](C)O)C(C)C)C(=O)N[C@@H](C)C(=O)N[C@@H](Cc1c[nH]c2ccccc12)C(=O)N[C@@H](CC(C)C)C(=O)N[C@H](C(=O)N[C@@H](CCCNC(=N)N)C(=O)NCC(=O)N[C@@H](CCCNC(=N)N)C(=O)NCC(=O)O)C(C)C [semaglutide, [Aib8, Lys26 (γGlu-2xOEG-C18 acid), Arg34]-hGLP-1-(7-37)-OH]
db/db mice
  Mortality (animal died): Animal died
In vivo; 0.06 mg/kg/day
  level at 24 h: 100 to 500 ng/mL
In vivo; 0.4 mg/kg/day
  level at 24 h: 500 to 4500 ng/mL
[1]; 0.06 mg/kg, Day 1 (3 h), 0.06 mg/kg
  Plasma concentrations, individual animals: 230 ng/mL
[1]; 0.06 mg/kg, Day 7 (0 h), 0.06 mg/kg
  Plasma concentrations, individual animals: 206 ng/mL
[1]; 0.06 mg/kg, Day 7 (3 h), 0.06 mg/kg
  Plasma concentrations, individual animals: 855 ng/mL
[1]; 0.06 mg/kg, Day 21 (0 h), 0.06 mg/kg
  Plasma concentrations, individual animals: 171 ng/mL and 269 ng/mL
[1]; 0.06 mg/kg, Day 21 (3 h), 0.06 mg/kg
  Plasma concentrations, individual animals: 867 ng/mL
[1]; 0.06 mg/kg, Day 28 (0 h), 0.06 mg/kg
  Plasma concentrations, individual animals: 320 ng/mL and 257 ng/mL
[1]; 0.06 mg/kg, Day 28 (3 h), 0.06 mg/kg
  Plasma concentrations, individual animals: 474 ng/mL and 406 ng/mL
[1]; 0.06 mg/kg/day SC daily
  plasma levels at 3 hrs post injection: increase in plasma levels
[1]; 0.4 mg/kg, Day 1 (3 h), 0.4 mg/kg
  Plasma concentrations, individual animals: 1310 ng/mL
[1]; 0.4 mg/kg, Day 14 (3 h), 0.4 mg/kg
  Plasma concentrations, individual animals: 6500 ng/mL
[1]; 0.4 mg/kg, Day 21 (0 h), 0.4 mg/kg
  Plasma concentrations, individual animals: 2550 ng/mL
[1]; 0.4 mg/kg, Day 28 (0 h), 0.4 mg/kg
  Plasma concentrations, individual animals: 2880 ng/mL and 1460 ng/mL
[1]; 0.4 mg/kg, Day 28 (3 h), 0.4 mg/kg
  Plasma concentrations, individual animals: 6690 ng/mL
[1]; 0.4 mg/kg/day SC daily
  plasma levels 3 hrs post injection: increase in plasma levels
[1]; between 0.06 and 0.4 mg/kg daily doses
  dose dependence of the increase in plasma levels: dose proportional
[2]; Group 2, repeated SC 0.008 mg/kg every 3 days until Day 28, n=3, 0 h
  Mean plasma concentrations of semaglutide: 0 ng/mL
[2]; minipig, plasma, Group 2, repeated SC 0.008 mg/kg every 3 days until Day 28, n=3, 6 h
  level at 6 h: 9.64 ng/mL
[2]; minipig, plasma, Group 2, repeated SC 0.008 mg/kg every 3 days until Day 28, n=3, 12 h
  level at 12 h: 10.2 ng/mL
[2]; minipig, plasma, Group 2, repeated SC 0.008 mg/kg every 3 days until Day 28, n=3, 24 h
  level at 24 h: 11 ng/mL
[2]; minipig, plasma, Group 2, repeated SC 0.008 mg/kg every 3 days until Day 28, n=3, 48 h
  level at 48 h: 9.67 ng/mL
[2]; minipig, plasma, Group 2, repeated SC 0.008 mg/kg every 3 days until Day 28, n=3, 72 h
  level at 72 h: 9.43 ng/mL
[2]; minipig, plasma, Group 2, repeated SC 0.008 mg/kg every 3 days until Day 28, n=3, 84 h
  level at 84 h: 17.7 ng/mL
[2]; minipig, plasma, Group 2, repeated SC 0.008 mg/kg every 3 days until Day 28, n=3, 144 h
  level at 144 h: 13.1 ng/mL
[2]; minipig, plasma, Group 2, repeated SC 0.008 mg/kg every 3 days until Day 28, n=3, 156 h
  level at 156 h: 35 ng/mL
[2]; minipig, plasma, Group 2, repeated SC 0.008 mg/kg every 3 days until Day 28, n=3, 216 h
  level at 216 h: 27.3 ng/mL
[2]; minipig, plasma, Group 2, repeated SC 0.008 mg/kg every 3 days until Day 28, n=3, 228 h
  level at 228 h: 31.3 ng/mL
[2]; minipig, plasma, Group 2, repeated SC 0.008 mg/kg every 3 days until Day 28, n=3, 288 h
  level at 288 h: 23 ng/mL
[2]; minipig, plasma, Group 2, repeated SC 0.008 mg/kg every 3 days until Day 28, n=3, 300 h
  level at 300 h: 21.3 ng/mL
[2]; minipig, plasma, Group 2, repeated SC 0.008 mg/kg every 3 days until Day 28, n=3, 360 h
  level at 360 h: 34 ng/mL
[2]; minipig, plasma, Group 2, repeated SC 0.008 mg/kg every 3 days until Day 28, n=3, 504 h (For G2)
  level at 504 h: 27.3 ng/mL
[2]; minipig, plasma, Group 2, repeated SC 0.008 mg/kg every 3 days until Day 28, n=3, 648 h (For G2)
  level at 648 h: 23.4 ng/mL
[2]; minipig, plasma, Group 2, repeated SC 0.008 mg/kg every 3 days until Day 28, n=3, 720 h (Day 30)
  level at 720 h: 27 ng/mL
[3]
  course of plasma levels: fluctuations with increase in plasma levels 3 h post injections
